# Data: ChEMBL document CHEMBL4251650, “Design and synthesis of 2-(4,5,6,7-tetrahydrothienopyridin-2-yl)-benzoimidazole carboxamides as novel orally efficacious Poly(ADP-ribose)polymerase (PARP) inhibitors” (Eur J Med Chem, 2018)
# Tests used:
# [1] = Oral bioavailability in Sprague-Dawley rat at 10 mg/kg administered as single dose by LC-MS/MS analysis; assay type: ADME, organism-based; conditions: in vivo
# [2] = Clearance in Sprague-Dawley rat at 5 mg/kg, iv administered as single dose by LC-MS/MS analysis; assay type: ADME, organism-based; conditions: in vivo
# [3] = Cmax in Sprague-Dawley rat at 10 mg/kg, po administered as single dose by LC-MS/MS analysis; assay type: ADME, organism-based; design: dose 10 mg/kg, route oral; conditions: in vivo
# [4] = Half life in Sprague-Dawley rat at 5 mg/kg, iv administered as single dose by LC-MS/MS analysis; assay type: ADME, organism-based; conditions: in vivo
# [5] = Tmax in Sprague-Dawley rat at 10 mg/kg, po administered as single dose by LC-MS/MS analysis; assay type: ADME, organism-based; conditions: in vivo
# [6] = Volume of distribution at steady state in Sprague-Dawley rat at 5 mg/kg, iv administered as single dose by LC-MS/MS analysis; assay type: ADME, organism-based; conditions: in vivo, read-out: Vdss
# [7] = AUC (0 to infinity) in Sprague-Dawley rat at 10 mg/kg, po administered as single dose by LC-MS/MS analysis; assay type: ADME, organism-based; design: dose 10 mg/kg, time infinity, route oral; conditions: in vivo
# [8] = Permeability across apical to basolateral side in human Caco2 cells; assay type: ADME, cell-based; conditions: Caco-2, read-out: permeability
# [9] = Intrinsic clearance in mouse liver microsomes; assay type: ADME, microsome; conditions: read-out: CLH
# [10] = Intrinsic clearance in human liver microsomes; assay type: ADME, microsome; conditions: read-out: CLH
# [11] = Solubility of the compound in pH 7.4 solution; assay type: physicochemical
# [12] = Solubility of the compound in pH 7 solution; assay type: physicochemical
# [13] = Solubility of the compound in pH 6.8 solution; assay type: physicochemical
# [14] = Intrinsic clearance in rat liver microsomes; assay type: ADME, microsome; conditions: read-out: CLH
bioavailability [1] [%],clearance [2] [mL/min/kg],Cmax [3] [ng/mL],half-life [4] [min],Tmax [5] [h],Vd [6] [L/kg],AUC(0-inf) [7] [ng·h/mL],Papp A→B [8] [×10⁻⁶ cm/s],microsomal CLint [9] [µL/min/mg],microsomal CLint [10] [µL/min/mg],solubility [11] [µM],solubility [12] [µM],solubility [13] [µM],microsomal CLint [14] [µL/min/mg],Compound
26,194,61.2,53.4,2.25,13.2,245,,,,,,,,Cl.Cn1c(-c2cc3c(s2)CNCC3)nc2c(C(N)=O)cc(F)cc21
,,,,,,,2.65,75,28,> 50,> 50,> 50,196,Cn1c(-c2cc3c(s2)CNCC3)nc2c(C(N)=O)cc(F)cc21
,,,,,,,0.2,123,23,> 50,> 50,> 50,340,NC(=O)c1cc(F)cc2[nH]c(-c3cc4c(s3)CNCC4)nc12
